Test results as given in patent publication US20260193571A1, “AQUEOUS COMPOSITION CONTAINING CUCURBITURILS” (Clariant International Ltd, priority 2022, published 2026).
≈ marks a conversion by molar mass, not a printed value. Blank lines part the entries; values can stand above or below the compound they belong to.

Key:
[1] = Increasing the solubility of cucurbiturils in water: appearance of aqueous compositions comprising cucurbiturils; format: physicochemical; settings: 0.2 percent by weight cucurbituril sample, 25° C.
Experimental: Compositions consisting of the cucurbituril sample and water and compositions consisting of the cucurbituril sample, other substances but no solubilizing agents according to component Z2) of the inventive aqueous compositions, and water were prepared and used as comparative compositions.

[2] = in water at room temperature (25° C.); cited from earlier work
[3] = Malodor removing effect: headspace GC-MS measurement of odorants; settings: headspace 60° C. 30 min, no agent/no cucurbiturils = 100
Experimental: An artificial malodor composition was prepared by mixing 10 mg of 2,3-butanedione, 5 mg of octanal, 30 mg of isovaleraldehyde, 300 mg of isovaleric acid and 50 mg of hexanal in 1 L of water.
The cucurbituril sample contains cucurbit[6]uril (50% by weight), cucurbit[7]uril (35% by weight) and cucurbit[8]uril (10% by weight).
Aqueous cucurbituril composition B: 0.5% by weight of the cucurbituril sample was mixed in water.
1 mL of aqueous cucurbituril composition A or B, 1 mL of malodor composition and 3 mL of water were mixed.
1 mL of 5% by weight of solubilizing agent in water, 1 mL of malodor composition and 3 mL of water were mixed.
4 mL of water and 1 mL of malodor composition were mixed.
The mixtures were prepared in headspace vials. The vials were then closed tightly and analyzed.
Analytical evaluation of malodor in the vials was conducted through a headspace measurement. A Gas Chromatograph Agilent 9000 Intuvo equipped with an autosampler Agilent 7697A equipped with a headspace extracting syringe, a Mass Detector Agilent MSD 5977B was used.
The headspace vials were equilibrated at 60° C. for 30 min at the autosampler before the measurement. A gas phase sample of 1000 μL was extracted from the vial and injected into the GC column. • Carrier gas: Helium 22.7 psi, split 5:1 • Column: DB-624 UI (length 60m, diameter 250 μm, size of film 1.4 μm) • Oven: Initial 40° C.—Hold time 2 mb—Rate 20° C./min—Temperature 260° C. —Hold time 5 min • Mass detector parameter: run in select ion mode. The peak area of each odorant was then integrated and recorded.

[4] = substance at 10 percent by weight in water
[5] = substance at 5 percent by weight in water
[6] = mixture contains cucurbiturils: 1 mL composition A (5% agent + 0.5% cucurbituril sample) or B (0.5% sample only) + 1 mL malodor composition + 3 mL water
[7] = mixture without cucurbiturils: 1 mL of 5% by weight solubilizing agent + 1 mL malodor composition + 3 mL water

Compound: [Ca+2].[Cl-].[Cl-] [CaCl2]
- Appearance [1, 4]: very turbid

Compound: O=C1N2CN3C(=O)N4CN5C(=O)N6CN7C(=O)N8CN9C(=O)N%10CN%11C(=O)N%12CN1C1C2N2CN%13C(=O)N(CN%14C(=O)N(CN%15C(=O)N(CN%16C(=O)N(CN%17C(=O)N(CN1C2=O)C%12C%11%17)C%10C9%16)C8C7%15)C6C5%14)C4C3%13 (stereo not shown) [cucurbit[6]uril]
- water solubility [2]: 18 µg/mL (≈ 18.1 µM)

Compound: O=C1N2CN3C(=O)N4CN5C(=O)N6CN7C(=O)N8CN9C(=O)N%10CN%11C(=O)N%12CN%13C(=O)N%14CN%15C(=O)N%16CN1C1C2N2CN%17C(=O)N(CN%18C(=O)N(CN%19C(=O)N(CN%20C(=O)N(CN%21C(=O)N(CN%22C(=O)N(CN%23C(=O)N(CN1C2=O)C%16C%15%23)C%14C%13%22)C%12C%11%21)C%10C9%20)C8C7%19)C6C5%18)C4C3%17 (stereo not shown) [cucurbit[8]uril]
- water solubility [2]: 17 µg/mL (≈ 12.8 µM)

Compound: Alkylbenzene sulfonate
- Appearance [1, 5]: very turbid

Further lines, with some results ahead:

- Appearance [1, 4]: very turbid
Compound: CCO [Ethanol]

- Appearance [1, 4]: very turbid
Compound: CC(O)CO (stereo not shown) [Propylene glycol]

- Appearance [1, 5]: very turbid
Compound: C12/14 alkyl ethoxylate with 8 EO

- Appearance [1, 5]: very turbid
Compound: Sodium laureth sulfate

- Appearance [1, 5]: clear
Compound: lauramine oxide [Genaminox LA]
- Relative peak area 2,3-butadione [3, 6]: 11
- Relative peak area hexanal [3, 6]: 9
- Relative peak area isovaleraldehyde [3, 6]: 6
- Relative peak area isovaleric acid [3, 6]: 3
- Relative peak area octanal [3, 6]: 73
- Relative peak area 2,3-butadione [3, 7]: 181
- Relative peak area hexanal [3, 7]: 203
- Relative peak area isovaleraldehyde [3, 7]: 182
- Relative peak area isovaleric acid [3, 7]: 10
- Relative peak area octanal [3, 7]: 134
